Results on one molecule are retold here after article PMC11997999, “Uncovering α-Selectivity for Liver X Receptor Agonists for Lipotoxic Cancer Therapies” (Journal of Medicinal Chemistry, 2025).

In one series the target is T1, LXRα LBD (GST) (Homo sapiens, UniProt Q13133).
T1 construct: 5 nM LXRα LBD (GST); 10 nM LXRβ LBD (GST); purchased ThermoFisher Scientific PV4655
T1 sequence (Q13133 209-447 limits assumed): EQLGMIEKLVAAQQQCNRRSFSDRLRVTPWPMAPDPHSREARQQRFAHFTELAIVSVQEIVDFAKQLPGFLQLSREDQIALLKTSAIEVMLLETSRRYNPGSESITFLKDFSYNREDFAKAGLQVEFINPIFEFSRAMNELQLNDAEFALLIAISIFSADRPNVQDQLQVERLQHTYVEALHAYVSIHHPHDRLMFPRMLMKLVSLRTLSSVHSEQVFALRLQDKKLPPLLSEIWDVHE
The series can be described thus: Time-resolved LXR FRET assay (LanthaScreen TR-FRET LXRα Coactivator Assay Kit). In kind it is biochemical. Conditions: 5 nM LXRα LBD (GST), read after 6 h; R^2 of fit given; read-out: TR-FRET activity (EC50) LXRα. In general terms: In TR-FRET formats the signal depends on donor and acceptor labels being close together.

Another series concerns the target T2, LXRβ LBD (GST) (Homo sapiens, UniProt P55055).
T2 construct: 5 nM LXRα LBD (GST); 10 nM LXRβ LBD (GST); purchased ThermoFisher Scientific PV4658
T2 sequence (P55055 222-460 limits assumed): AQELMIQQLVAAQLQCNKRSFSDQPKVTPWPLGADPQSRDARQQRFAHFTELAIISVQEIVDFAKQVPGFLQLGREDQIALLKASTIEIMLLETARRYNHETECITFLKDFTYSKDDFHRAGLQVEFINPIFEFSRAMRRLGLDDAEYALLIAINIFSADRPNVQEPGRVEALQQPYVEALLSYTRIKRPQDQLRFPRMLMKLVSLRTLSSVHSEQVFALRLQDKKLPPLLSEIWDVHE
The experiment in a line: Time-resolved LXR FRET assay (LanthaScreen TR-FRET LXRβ assay kit). In kind it is biochemical. To be noted: 10 nM LXRβ LBD (GST), read after 6 h; R^2 of fit given; read-out: TR-FRET activity (EC50) LXRβ.

The next series deals with T3, LXRα (Homo sapiens, UniProt Q13133).
T3 construct: To measure the activity of the remaining isoform under treatment; endogenous in cells; host or cells: Hep3B (NR1H2 knockout, LXRE-GFP reporter)
T3 sequence (Q13133 1-447): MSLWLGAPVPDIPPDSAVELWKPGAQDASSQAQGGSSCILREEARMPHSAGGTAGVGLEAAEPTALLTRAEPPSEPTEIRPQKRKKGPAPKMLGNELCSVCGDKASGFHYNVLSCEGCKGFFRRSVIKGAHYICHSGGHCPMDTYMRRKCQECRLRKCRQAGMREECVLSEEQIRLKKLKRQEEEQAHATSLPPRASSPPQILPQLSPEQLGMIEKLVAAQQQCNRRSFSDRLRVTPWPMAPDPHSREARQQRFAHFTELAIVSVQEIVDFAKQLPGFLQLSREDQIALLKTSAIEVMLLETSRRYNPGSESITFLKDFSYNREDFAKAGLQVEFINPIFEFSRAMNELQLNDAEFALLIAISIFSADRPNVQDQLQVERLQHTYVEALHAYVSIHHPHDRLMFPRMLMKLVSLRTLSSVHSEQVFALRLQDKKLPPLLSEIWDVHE
The experiment in a line: LXRα-specific LXRE-GFP reporter assay in Hep3B cells (NR1H2 knockout). In kind it is cell-based. Conditions: 48h of treatment, GFP by FACS.

In the next series the test system is Hep3B cells. The experiment in a line: Oxidative stress in Hep3B cells (CellROX Green Reagent, FACS). To be noted: 3 days, 3 μM LXR agonist + 1 μM sorafenib. In kind it is cell-based, human. The procedure:
We previously described that our established lipotoxic therapy triggers oxidative stress and an ER stress response, which finally leads to apoptosis in tumor cells.[6]
The determination of oxidative stress levels was performed using CellROX Green Reagent from Thermo Fischer Scientific in Hep3B cells. Measurement of green fluorescence was performed using the FACS LSRFortessa cell analyzer (BD Bioscience, Flow Cytometry Core Facility Tuebingen) after 3 days of treatment. Data were collected using DIVA software (v9.0.1).

The next series concerns AML12 cells. The series can be described thus: Cell viability analysis in untransformed liver cells AML12 (CellTiter-Glo). Format: cell-based. Conditions: AML12, 5d, with 2 μM sorafenib. The procedure: To further determine the therapeutic potential of compound 40, we analyzed the effect of a combinatorial lipotoxic therapy with this agonist in untransformed liver cells. We applied the well-established untransformed liver cell lines AML12 and BNL CL.2 and subjected them to treatment with 40 in combination with sorafenib.
For organoid treatment studies, digestion of organoids was performed using TrypLE Express (Gibco) supplemented with 100 μg/mL DNaseI and 10.5 μM Y-27632 dihydrochloride (Invitrogen) at 37 °C, and afterward, single-cells were plated in white 96 well plates (Sarstedt) in a mixture of 10% Matrigel (Growth Factor Reduced (GFR) Matrigel, Corning) in culture medium. Cell viability was determined after 5 days of treatment using the CellTiter-Glo 3D Cell Viability Assay Kit (Promega). Cell viability of Hep3B, AML12, and BNL CL.2 cells was determined after 5 days of treatment in white 96 well plates (Sarstedt) using the CellTiter-Glo 2.0 Cell Viability Assay Kit (Promega). AML12 and BNL CL.2 cells were also obtained from the American Type Culture Collection. The luminescence signal was measured using an […] M PLEX plate reader (Tecan) and the Tecan i-control software (v3.9.1). Sodium oleate (Selleckchem) was dissolved in methanol and added to cells at a final concentration of 200 μM.
A general note: Cellular ATP, detected with luciferase, serves as a proxy for viable cell number.

With `O=C1C(Nc2ccc(N3CCCCC3)cc2)=C(c2ccccc2)C(=O)N1Cc1ccccc1` [Compound 40, 1-Benzyl-3-phenyl-4-((4-(piperidin-1-yl)phenyl)amino)-1H-pyrrole-2,5-dione], the concentration giving a half-maximal response (EC50) – broadly, the concentration giving half of the maximal effect – was 0.042 µM on LXRα LBD (GST), 0.266 µM on LXRβ LBD (GST) and 0.027 µM on LXRα. Besides, the “oxidative stress induction in combination with sorafenib” value with Hep3B cells was “more efficient in inducing oxidative stress than GW3965 (2), GSK3987 (3), and AZ876 (4)”. The “sensitivity of untransformed liver cells to combination therapy (cell viability)” value in the series on AML12 cells is “only very low sensitivity”.
